Entries after “also recorded” stand apart in the source; their conditions may differ.
Assays:
chymotrypsin = chymotrypsin (Bos taurus, UniProt P00766); test: Incubation with chymotrypsin in simulated intestinal fluid, LC-HRMS; settings: for site of cleavage (amide hydrolysis) by chymotrypsin: chymotrypsin 500 μg/mL in SIF, 10 μM peptide, 37°C, up to 120 min, metabolite structures from LC-HRMS/MS (Mass-MetaSite)
Protocol: (§4) Incubations with dataset-1 were performed using isolated enzymes. We investigated serine proteases like trypsin, chymotrypsin, and pancreatic elastase (E 3.4.21.1, E 3.4.21.4, E 3.4.21.36) at a concentration of 500 μg/mL in simulated intestinal fluid (SIF) and the aspartic protease pepsin (E 3.4.23.1) at a concentration of 500 μg/mL in simulated gastric fluid (SGF). Proteases were purchased from Sigma Aldrich and SIF and SGF were purchased from RICCA Chemical Company (Arlington, TX, USA). […] All incubations were conducted at 37°C.
Negative control samples were prepared under the same conditions of the incubation (see above), containing each enzyme but without adding probe compounds. Probe compounds were added to 96-well plates (Micronic 0.75 mL V-bottom) using a Hewlett Packard HPD300e. […] Each well was a time point, with five timepoints (0, 5, 15, 45 and 120 min) per compound per protease. Incubations were carried out using a Hamilton MicroLab STAR Plus liquid-handler to initiate, conduct and stop incubation reactions within a single automated method. The incubation plates were placed in heated shakers present on the deck of the liquid-handler and operated at 37°C and 400 rpm shaking speed. Reactions were started with the addition of the enzyme at the appropriate time to allow for all reactions to be quenched at a single time. Incubation quenching was again carried out by the Hamilton STAR Plus with the addition of 100 μL of acetonitrile with 1% formic acid (FA) or 1% ammonium hydroxide (pepsin-only) and the internal standard (melanotan) at a concentration of 1 μM. Following reaction quenching, the samples were vortexed for approximately 2 min and the time zero sample was generated by aliquoting 50 nL of the appropriate stock compound into quenched control samples. The samples were then centrifuged in a Beckman Allegra 25R at 6000 rcf for 20 min at 10°C. Resulting supernatant was transferred to Eppendorf LoBind 96-well plates and 1 μL was injected onto a Waters Acquity BEH-C18 1 x 50 mm, 1.7 μm column via a Waters Acquity M-Class ultra-performance liquid chromatography (UPLC) autosampler. All time points were analyzed using a data-dependent MS/MS method.
For dataset-1, chromatographic separation of metabolites was performed using the ACQUITY UPLC system (Waters, Milford, MA, USA). The ACQUITY UPLC BEH C18 column (1.0 × 50 mm, 1.7 μm) was heated to 60°C. The mobile phase consisted of 0.1% FA in water (eluent A) and 0.1% formic acid in acetonitrile (eluent B) at a flow rate of 75 μL/min. The initial condition was 10% eluent B, which was maintained for 0.1 min. Eluent B was then increased via a linear gradient to 40% until 3.1 min and further increased to 90% via linear gradient to 3.6 min. Eluent B was then held at 90% until 4.0 min when it was ramped down to 10% by 4.05 min and held until the end of the run at 6 min. […] Full scan/data-dependent MS/MS analyses were run on a Thermo Scientific Q-Exactive Plus mass spectrometer operated in positive electrospray ionization (ESI) mode. The MS and MS/MS acquisition scans were operated with a resolution setting of 17,500 for both, with an automatic gain control (AGC) setting of 1E6 and maximum injection time of 100 ms for MS and AGC of 2E5 and max injection time of 50 ms for full scan/data-dependent MS/MS.

neprilysin (NEP) = neprilysin (NEP) (Homo sapiens, UniProt P08473); test: Incubation with neprilysin in Hank's buffered salt solution, LC-HRMS; settings: NEP 2 μg/mL in Hank's buffered salt solution, 37°C, 2, 4, 8, 24 hr (GLP-1 0, 5, 15, 30, 60 min), Fig 12b
Protocol: (§1) Incubations with dataset-1 were performed using isolated enzymes. […] All incubations were conducted at 37°C.
(§2) The dataset-2 peptide incubations were performed at Roche Innovation Center Basel F. Hoffmann-La Roche Ltd., (Hoffmann-La Roche, Basel, Switzerland) using isolated enzymes. For both DPP-4 and NEP incubations, a solution of the respective enzyme in Hank’s buffered salt solution was pre-incubated at 37°C for 3 to 5 min, in 96-well plate Nunc (Thermo Scientific, 163320) before the addition of 30 μL of test substance to give final concentrations of 2 μg/mL DPP-4 or 2 μg/mL NEP. Negative control samples were prepared under the same conditions (see above), containing each enzyme but without adding test compound. […] Reactions were started with the addition of […] and then quenched at each time point with 75 μL cold acetonitrile containing 1% FA followed by thorough mixing. The samples were centrifuged at 4°C for 15 min at 14,000g, and the supernatant was collected. The metabolite profile was immediately analyzed.
(§3) To generate dataset-2, a Thermo Scientific Dionex UltiMate 3000 RS UPLC system in combination with a Pal autosampler (CTC Analytics AG, Zwingen, Switzerland) was used. Chromatographic separation was performed using an Acquity CSHT Phenyl-Hexyl Column (1.7 μm, 2.1 x 100 mm). The mobile phases consisted of A: H2O/0.1% FA and B: methanol/0.1% FA. […]

[1] = target: T1, dipeptidyl peptidase-4 (DPP-4) (Homo sapiens, UniProt P27487); test: Incubation with dipeptidyl peptidase-4 in Hank's buffered salt solution, LC-HRMS; format: in vitro ADME; settings: DPP-4 2 μg/mL in Hank's buffered salt solution
T1 construct: purchased Sigma D3446; host or cells: Sf9 cells
Protocol: as §1, §2, §3

trypsin = target: T2, trypsin (Bos taurus, UniProt P00760); test: Incubation with trypsin in simulated intestinal fluid, LC-HRMS
T2 sequence (P00760 24-246): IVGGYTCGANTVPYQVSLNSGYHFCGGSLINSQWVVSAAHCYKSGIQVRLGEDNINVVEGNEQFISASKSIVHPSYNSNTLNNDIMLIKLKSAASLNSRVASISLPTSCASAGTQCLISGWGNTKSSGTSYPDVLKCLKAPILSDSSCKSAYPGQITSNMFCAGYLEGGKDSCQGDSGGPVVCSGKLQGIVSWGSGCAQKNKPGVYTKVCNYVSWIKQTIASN
Protocol: as §4
Negative control samples were prepared under the same conditions of the incubation (see above), containing each enzyme but without adding probe compounds. Probe compounds were added to 96-well plates (Micronic 0.75 mL V-bottom) using a Hewlett Packard HPD300e. […] Each well was a time point, with five timepoints (0, 5, 15, 45 and 120 min) per compound per protease. Incubations were carried out using a Hamilton MicroLab STAR Plus liquid-handler to initiate, conduct and stop incubation reactions within a single automated method. The incubation plates were placed in heated shakers present on the deck of the liquid-handler and operated at 37°C and 400 rpm shaking speed. Reactions were started with the addition of the enzyme at the appropriate time to allow for all reactions to be quenched at a single time. Incubation quenching was again carried out by the Hamilton STAR Plus with the addition of 100 μL of acetonitrile with 1% formic acid (FA) or 1% ammonium hydroxide (pepsin-only) and the internal standard (melanotan) at a concentration of 1 μM. Following reaction quenching, the samples were vortexed for approximately 2 min and the time zero sample was generated by aliquoting 50 nL of the appropriate stock compound into quenched control samples. The samples were then centrifuged in a Beckman Allegra 25R at 6000 rcf for 20 min at 10°C. […] All time points were analyzed using a data-dependent MS/MS method. […]

pancreatic elastase = target: T3, pancreatic elastase (Sus scrofa, UniProt P00772); test: Incubation with pancreatic elastase in simulated intestinal fluid, LC-HRMS; format: in vitro ADME, porcine; settings: elastase 500 μg/mL in SIF pH 7.4-7.6, 10 μM peptide, 37°C, 0, 5, 15, 45, 120 min, internal standard melanotan, Fig 11c
T3 construct: porcine pancreas; purchased Sigma (Sigma Aldrich) E0258; host or cells: porcine pancreas (tissue-derived)
Protocol: as §1
Supporting Table 1: Incubation conditions and proteases characteristics
Chymotrypsin Trypsin Elastase Pepsin
αChymotrypsin from Trypsin from Elastase from Pepsin from porcine
Protease bovine pancreas, bovine pancreas, porcine pancreas, gastric mucosa,
Internal Melanotan II acetate salt,
Mobile Phase Water +0.1% formic acid
Mobile Phase Acetonitrile+0.1% formic acid […]
Quadrupole -Orbitrap Mass Spectrometer

T1 sequence (P27487 whole entry): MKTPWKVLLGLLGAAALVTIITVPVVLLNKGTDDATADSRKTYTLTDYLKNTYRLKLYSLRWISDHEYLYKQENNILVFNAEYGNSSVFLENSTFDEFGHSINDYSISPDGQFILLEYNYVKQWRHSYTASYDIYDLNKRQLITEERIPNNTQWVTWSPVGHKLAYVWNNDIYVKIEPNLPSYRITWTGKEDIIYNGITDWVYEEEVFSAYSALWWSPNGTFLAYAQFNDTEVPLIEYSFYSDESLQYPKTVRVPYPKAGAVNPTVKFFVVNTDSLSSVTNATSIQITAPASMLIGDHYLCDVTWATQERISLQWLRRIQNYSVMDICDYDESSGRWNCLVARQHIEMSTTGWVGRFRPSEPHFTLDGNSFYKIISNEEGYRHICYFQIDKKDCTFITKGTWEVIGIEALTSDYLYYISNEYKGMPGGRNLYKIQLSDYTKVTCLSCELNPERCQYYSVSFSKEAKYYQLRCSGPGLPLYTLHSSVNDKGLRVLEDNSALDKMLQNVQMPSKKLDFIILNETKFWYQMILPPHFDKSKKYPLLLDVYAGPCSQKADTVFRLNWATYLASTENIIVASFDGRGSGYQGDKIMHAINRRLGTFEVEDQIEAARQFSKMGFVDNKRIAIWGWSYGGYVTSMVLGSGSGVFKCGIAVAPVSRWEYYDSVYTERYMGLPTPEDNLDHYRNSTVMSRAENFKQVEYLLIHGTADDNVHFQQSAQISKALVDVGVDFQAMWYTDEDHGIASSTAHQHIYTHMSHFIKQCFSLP
T3 sequence (P00772 27-266): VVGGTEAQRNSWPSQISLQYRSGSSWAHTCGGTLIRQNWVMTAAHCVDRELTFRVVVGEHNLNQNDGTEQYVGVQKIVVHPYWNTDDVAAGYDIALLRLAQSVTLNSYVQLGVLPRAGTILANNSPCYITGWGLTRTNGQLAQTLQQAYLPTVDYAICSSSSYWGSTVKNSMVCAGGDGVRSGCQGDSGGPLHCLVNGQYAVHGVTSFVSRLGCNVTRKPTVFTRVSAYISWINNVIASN
Chain of neprilysin (NEP) (P08473 whole entry): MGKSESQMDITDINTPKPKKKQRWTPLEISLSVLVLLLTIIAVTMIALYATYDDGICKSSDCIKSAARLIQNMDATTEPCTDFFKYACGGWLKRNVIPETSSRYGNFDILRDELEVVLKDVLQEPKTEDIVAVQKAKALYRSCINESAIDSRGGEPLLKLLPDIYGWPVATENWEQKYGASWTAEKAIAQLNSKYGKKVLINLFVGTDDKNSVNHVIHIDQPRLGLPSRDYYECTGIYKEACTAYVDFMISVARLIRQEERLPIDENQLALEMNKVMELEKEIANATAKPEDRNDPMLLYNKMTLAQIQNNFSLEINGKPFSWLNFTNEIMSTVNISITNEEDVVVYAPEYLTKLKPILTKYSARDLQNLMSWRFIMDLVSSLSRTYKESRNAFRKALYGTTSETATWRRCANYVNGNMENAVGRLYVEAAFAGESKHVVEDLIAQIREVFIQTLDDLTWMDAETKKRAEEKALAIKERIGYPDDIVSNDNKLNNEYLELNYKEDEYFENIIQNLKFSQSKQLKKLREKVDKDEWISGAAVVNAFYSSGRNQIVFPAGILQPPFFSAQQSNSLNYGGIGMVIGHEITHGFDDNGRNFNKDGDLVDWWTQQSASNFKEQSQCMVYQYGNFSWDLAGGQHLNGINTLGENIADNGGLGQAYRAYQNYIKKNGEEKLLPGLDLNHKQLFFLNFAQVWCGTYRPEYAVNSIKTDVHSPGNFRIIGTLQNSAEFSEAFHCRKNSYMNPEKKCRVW

Compound: CCNC(=O)[C@@H]1CCCN1C(=O)[C@H](CCCNC(=N)N)NC(=O)[C@H](CC(C)C)NC(=O)[C@@H](COC(C)(C)C)NC(=O)[C@H](Cc1ccc(O)cc1)NC(=O)[C@H](CO)NC(=O)[C@H](Cc1c[nH]c2ccccc12)NC(=O)[C@H](Cc1cnc[nH]1)NC(=O)[C@@H]1CCC(=O)N1 [buserelin, Buserelin]
- site of cleavage (amide hydrolysis) by chymotrypsin (chymotrypsin): amide hydrolysis of the Trp-Ser bond; also recorded: amide hydrolysis of the Tyr-D-Ser(tBu) bond

Compound: CCCCCCCCCCCCCCCC(=O)N[C@@H](CCC(=O)NCCCC[C@H](NC(=O)[C@H](C)NC(=O)[C@H](C)NC(=O)[C@H](CCC(N)=O)NC(=O)CNC(=O)[C@H](CCC(=O)O)NC(=O)[C@H](CC(C)C)NC(=O)[C@H](Cc1ccc(O)cc1)NC(=O)[C@H](CO)NC(=O)[C@H](CO)NC(=O)[C@@H](NC(=O)[C@H](CC(=O)O)NC(=O)[C@H](CO)NC(=O)[C@@H](NC(=O)[C@H](Cc1ccccc1)NC(=O)[C@@H](NC(=O)CNC(=O)[C@H](CCC(=O)O)NC(=O)[C@H](C)NC(=O)[C@@H](N)Cc1cnc[nH]1)[C@@H](C)O)[C@@H](C)O)C(C)C)C(=O)N[C@@H](CCC(=O)O)C(=O)N[C@@H](Cc1ccccc1)C(=O)N[C@H](C(=O)N[C@@H](C)C(=O)N[C@@H](Cc1c[nH]c2ccccc12)C(=O)N[C@@H](CC(C)C)C(=O)N[C@H](C(=O)N[C@@H](CCCNC(=N)N)C(=O)NCC(=O)N[C@@H](CCCNC(=N)N)C(=O)NCC(=O)O)C(C)C)[C@@H](C)CC)C(=O)O [liraglutide, Liraglutide]
- metabolic stability with NEP: percent parent peptide remaining with respect to time, compared in words (neprilysin (NEP)): digested faster than the other compounds; also recorded: NEP acted slower as compared to DPP-4
- metabolic stability with DPP-4: percent parent peptide remaining with respect to time, compared in words ([1]; 37°C, 2, 4, 8, 24 hr (GLP-1 0, 5, 15, 30, 60 min), LC-HRMS, Fig 12a): digested faster than the other compounds
- site of cleavage (amide hydrolysis) by DPP-4 ([1]; 37°C, metabolite structures from LC-HRMS/MS (Mass-MetaSite)): mainly metabolized by DPP-4 at the SoC Ala-Glu

Compound: CC[C@H](C)[C@@H]1NC(=O)[C@H](Cc2ccc(O)cc2)NC(=O)[C@@H](N)CSSC[C@@H](C(=O)N2CCC[C@H]2C(=O)N[C@@H](CC(C)C)C(=O)NCC(N)=O)NC(=O)[C@H](CC(N)=O)NC(=O)[C@H](CCC(N)=O)NC1=O [oxytocin, Oxytocin]
- metabolic stability with trypsin: percent parent peptide remaining with respect to time, compared in words (trypsin; trypsin 500 μg/mL in SIF pH 7.4-7.6, 10 μM peptide, 37°C, 0, 5, 15, 45, 120 min, LC-HRMS, internal standard melanotan, Fig 11a): digested slower than calcitonin; also recorded: hydrolyzed slower than all other peptides
- metabolic stability with chymotrypsin: percent parent peptide remaining with respect to time, compared in words (chymotrypsin; chymotrypsin 500 μg/mL in SIF pH 7.4-7.6, 10 μM peptide, 37°C, 0, 5, 15, 45, 120 min, LC-HRMS, internal standard melanotan, Fig 11b): digested slower than calcitonin
- site of cleavage (amide hydrolysis) by chymotrypsin (chymotrypsin): cleavage of Leu-Gly; also recorded: Tyr-Ile (M1-38, cycle opening)

Compound: C[C@@H](O)[C@@H]1NC(=O)[C@H](CCCCN)NC(=O)[C@@H](Cc2c[nH]c3ccccc23)NC(=O)[C@H](Cc2ccccc2)NC(=O)[C@@H](NC(=O)[C@H](N)Cc2ccccc2)CSSC[C@@H](C(=O)N[C@H](CO)[C@@H](C)O)NC1=O [octreotide, Octreotide]
- metabolic stability with pancreatic elastase: percent parent peptide remaining with respect to time, compared in words (pancreatic elastase): digested significantly faster than the larger secretin and calcitonin, but it was slower than oxytocin

Compound: Glp-His-Trp-Ser-Tyr-HisBzl-Leu-Arg-Pro-NHEt [histrelin, Histrelin, synthetic LHRH analogue, Sigma L2761]
- metabolic stability with pancreatic elastase: percent parent peptide remaining with respect to time, compared in words (pancreatic elastase): slower than for leuprolide

Compound: Glp-His-Trp-Ser-Tyr-Ser-tBu-Leu-Arg-Pro-NHNHCONH2 [goserelin, Goserelin]
- site of cleavage (amide hydrolysis) by trypsin (trypsin; trypsin 500 μg/mL in SIF, 10 μM peptide, 37°C, up to 120 min, metabolite structures from LC-HRMS/MS (Mass-MetaSite)): also when the C-terminal Pro was modified to Pro-NHNHCONH2 in goserelin

Source: paper PMC5665424, “Software-aided approach to investigate peptide structure and metabolic susceptibility of amide bonds in peptide drugs based on high resolution mass spectrometry” (PLoS ONE, 2017)
